The record followed here is paper PMC12005767 (Advanced Science, 2025).

A value given as a limit tells only on which side of the number the result lay.

One data set has as its system myristoylation of SHMT2. The experiment in a line: Click chemistry assay of SHMT2 myristoylation in HEK293T cells. It counts as cell-based. To be noted: HEK293T cells, 0.25, 0.5 and 1 × 10^−6 M, 24 h. The method, then: For click chemistry experiment, HEK293T cells were first incubated with B6 for 24 h, followed by treatment with Alk14 for 4 h prior to harvest.
After the treatment mentioned in Section 4.2, HepG2 cells were lysed in 1% SDS lysis buffer (50 × 10^−3 M Tris‐HCl pH 8.0, 1% (w/v) SDS) with protease‐phosphatase inhibitor cocktail (ThermoFisher).^[ [47] ^] Click chemistry reactions were performed using commercially available reagents as per manufacturer instructions. 100 µg labeled protein was incubated with 50 µL of streptavidin magnetic beads overnight at 4 °C with end‐over‐end rotation. Following incubation, the beads were collected and rinsed three times with washing buffer. After the final wash, the supernatant was discarded, sample buffer was added to the beads and boiled at 95 °C for 5 min. The samples were further analyzed via western blotting using antibody specific for detection of endogenous SHMT2.

The target in a further data set is T1, HDAC1 (Homo sapiens, UniProt Q13547).
T1 construct: purchased BPS Bioscience
The experiment in a line: In vitro HDACs inhibition fluorescence assay, HDAC1. The format is biochemical. The settings on record: mean ± SEM. The method, then:
(§1) In Vitro HDACs Inhibition Fluorescence Assay: For the inhibitory activity against HDAC1‐10, enzymes were also procured from BPS Bioscience. The in vitro […] inhibition assays were conducted following the established method described previously.^[ [45] ^] The working concentrations of HDAC1‐10 were 4 × 10^−9 M. The fluorogenic substrate of HDAC1, 2, 3, and 6 was Boc‐Lys (acetyl)‐AMC, and the substrate of HDAC4, 5, 7, 8, 9, and 10 was Boc‐Lys (trifluoroacetyl) AMC. The developer solution consists of 30 mg mL^−1 trypsin and 5 × 10^−6 M TSA. A standing period of 30 min was sufficient before assessing the fluorescence intensity.

A further data set deals with T2, HDAC3 (Homo sapiens, UniProt O15379).
T2 construct: purchased BPS Bioscience
In words: In vitro HDACs inhibition fluorescence assay, HDAC3. To be noted: mean ± SEM. The format is biochemical. The method, then: as §1

Data set [1] relates to MASLD mice (60 kcal% fat diet). The experiment in a line: High fat diet-induced MASLD model in mice. The format is in vivo, C57BL/6J mice. The protocol: For pharmacology experiments, mice were divided into five groups (n = 8 per group): control group (C), B6 10 mg kg^−1 group [B6 (10)], high fat diet group (H), HFD + 5 mg kg^−1 B6 group [HB6 (5)], and HFD + 10 mg kg^−1 B6 group [HB6 (10). The 60 kcal% fat diet (MD12033) used for establishing the MASLD model was purchased from Medicience (Yangzhou, China). The C and B6 (10) groups were fed a chow diet for 12 weeks, followed by gavage administration of vehicle and 10 mg kg^−1 B6 for the subsequent four weeks, respectively. The H, HB6 (5) and HB6 (10) groups were fed a 60 kcal% fat diet for 12 weeks, followed by gavage administration of vehicle, 5 mg kg^−1 B6 and 10 mg kg^−1 B6 for the subsequent four weeks, respectively.
TG, FFA, and TC kits were purchased from Solarbio (Beijing, China). The liver tissues from mice were homogenized and processed according to the instructions. […]
ALT, AST, ALP, TG, NEFA, CHO, LDL‐C, and HDL‐C were assessed using a Hitachi 7020 automatic analyzer (Hitachi, Tokyo, Japan). […]
Food intake, locomotor VO2, VCO2, and heat production were measured by the TSE system, and RER were calculated using the manufacturer's system software.
Western blot was carried out as described.^[ [49] ^] In brief, samples were lysed with a lysis buffer. The same quantity of total proteins (40–60 µg) from each sample was separated on SDS‐PAGE followed by transfer onto a nitrocellulose filter membrane and incubation with the indicated antibodies. After incubation with secondary antibodies, the protein bands were visualized using a chemiluminescence imaging system. All samples in the same group were processed simultaneously.
Cells and liver tissues were extracted for total RNA. A reverse transcription kit was used to synthesize cDNA. qRT‐PCR was performed with the primers listed in Table S1 (Supporting Information) using the SYBR green PCR master mix. The coding sequence of the target gene was found in NCBI, and Primer3 (v.0.4.0) was used to design amplification primers. The results were normalized by β‐actin in the corresponding sample.

For a further data set, the target named is T3, HDAC7 (Homo sapiens, UniProt Q8WUI4).
T3 construct: purchased BPS Bioscience
The experiment in a line: In vitro HDACs inhibition fluorescence assay, HDAC7. It counts as biochemical. The settings on record: mean ± SEM. The method, then:
as §1

A further data set deals with T4, HDAC6 (Homo sapiens, UniProt Q9UBN7).
T4 construct: purchased BPS Bioscience
The experiment in a line: In vitro HDACs inhibition fluorescence assay, HDAC6. The format is biochemical. The settings on record: mean ± SEM. The protocol:
as §1

T2 sequence (O15379 whole entry): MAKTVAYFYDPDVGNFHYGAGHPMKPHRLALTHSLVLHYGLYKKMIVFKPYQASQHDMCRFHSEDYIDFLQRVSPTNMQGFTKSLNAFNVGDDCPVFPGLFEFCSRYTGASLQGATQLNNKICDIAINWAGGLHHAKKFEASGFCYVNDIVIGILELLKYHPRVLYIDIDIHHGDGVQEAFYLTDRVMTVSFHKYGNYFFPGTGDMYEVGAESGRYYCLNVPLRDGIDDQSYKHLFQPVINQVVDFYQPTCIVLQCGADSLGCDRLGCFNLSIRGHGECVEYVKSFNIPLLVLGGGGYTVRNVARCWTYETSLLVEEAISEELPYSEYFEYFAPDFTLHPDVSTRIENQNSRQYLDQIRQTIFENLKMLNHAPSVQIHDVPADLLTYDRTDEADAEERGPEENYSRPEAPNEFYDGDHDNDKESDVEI
T2 sequence (Q9Y618 395-489 partner limits assumed): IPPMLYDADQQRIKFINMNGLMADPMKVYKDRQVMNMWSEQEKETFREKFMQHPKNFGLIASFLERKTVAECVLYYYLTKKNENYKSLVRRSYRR
T4 sequence (Q9UBN7 whole entry): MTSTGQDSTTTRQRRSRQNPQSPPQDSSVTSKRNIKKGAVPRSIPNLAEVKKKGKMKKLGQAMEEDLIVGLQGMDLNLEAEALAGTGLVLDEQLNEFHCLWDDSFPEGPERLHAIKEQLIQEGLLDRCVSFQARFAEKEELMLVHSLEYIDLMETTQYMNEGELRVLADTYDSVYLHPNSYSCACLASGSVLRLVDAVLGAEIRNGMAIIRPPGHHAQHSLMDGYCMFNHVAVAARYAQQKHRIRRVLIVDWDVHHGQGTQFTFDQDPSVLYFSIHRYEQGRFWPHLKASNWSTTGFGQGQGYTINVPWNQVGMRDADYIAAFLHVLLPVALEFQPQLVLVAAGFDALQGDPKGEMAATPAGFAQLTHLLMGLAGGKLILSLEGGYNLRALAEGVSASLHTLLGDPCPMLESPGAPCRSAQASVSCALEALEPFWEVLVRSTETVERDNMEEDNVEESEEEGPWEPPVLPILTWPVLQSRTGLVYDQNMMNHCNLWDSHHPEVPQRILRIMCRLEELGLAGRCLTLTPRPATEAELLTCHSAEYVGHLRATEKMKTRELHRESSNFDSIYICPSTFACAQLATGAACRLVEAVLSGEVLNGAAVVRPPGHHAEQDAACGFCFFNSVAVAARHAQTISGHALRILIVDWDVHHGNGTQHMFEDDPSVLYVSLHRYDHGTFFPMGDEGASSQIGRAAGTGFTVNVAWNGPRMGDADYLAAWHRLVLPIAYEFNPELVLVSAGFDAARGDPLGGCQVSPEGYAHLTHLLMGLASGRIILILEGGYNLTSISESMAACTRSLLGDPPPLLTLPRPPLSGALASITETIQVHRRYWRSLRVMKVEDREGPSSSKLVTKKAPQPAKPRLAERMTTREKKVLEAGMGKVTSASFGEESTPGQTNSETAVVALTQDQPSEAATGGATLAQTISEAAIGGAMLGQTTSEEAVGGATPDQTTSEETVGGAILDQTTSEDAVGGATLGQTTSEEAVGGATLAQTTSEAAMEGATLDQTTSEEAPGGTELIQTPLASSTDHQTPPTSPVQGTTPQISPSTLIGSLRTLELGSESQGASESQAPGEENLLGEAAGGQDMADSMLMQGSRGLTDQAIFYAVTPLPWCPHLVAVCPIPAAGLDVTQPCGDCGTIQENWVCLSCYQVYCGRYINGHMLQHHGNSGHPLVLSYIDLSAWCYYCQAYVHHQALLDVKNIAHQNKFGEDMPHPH
T3 sequence (Q8WUI4 whole entry): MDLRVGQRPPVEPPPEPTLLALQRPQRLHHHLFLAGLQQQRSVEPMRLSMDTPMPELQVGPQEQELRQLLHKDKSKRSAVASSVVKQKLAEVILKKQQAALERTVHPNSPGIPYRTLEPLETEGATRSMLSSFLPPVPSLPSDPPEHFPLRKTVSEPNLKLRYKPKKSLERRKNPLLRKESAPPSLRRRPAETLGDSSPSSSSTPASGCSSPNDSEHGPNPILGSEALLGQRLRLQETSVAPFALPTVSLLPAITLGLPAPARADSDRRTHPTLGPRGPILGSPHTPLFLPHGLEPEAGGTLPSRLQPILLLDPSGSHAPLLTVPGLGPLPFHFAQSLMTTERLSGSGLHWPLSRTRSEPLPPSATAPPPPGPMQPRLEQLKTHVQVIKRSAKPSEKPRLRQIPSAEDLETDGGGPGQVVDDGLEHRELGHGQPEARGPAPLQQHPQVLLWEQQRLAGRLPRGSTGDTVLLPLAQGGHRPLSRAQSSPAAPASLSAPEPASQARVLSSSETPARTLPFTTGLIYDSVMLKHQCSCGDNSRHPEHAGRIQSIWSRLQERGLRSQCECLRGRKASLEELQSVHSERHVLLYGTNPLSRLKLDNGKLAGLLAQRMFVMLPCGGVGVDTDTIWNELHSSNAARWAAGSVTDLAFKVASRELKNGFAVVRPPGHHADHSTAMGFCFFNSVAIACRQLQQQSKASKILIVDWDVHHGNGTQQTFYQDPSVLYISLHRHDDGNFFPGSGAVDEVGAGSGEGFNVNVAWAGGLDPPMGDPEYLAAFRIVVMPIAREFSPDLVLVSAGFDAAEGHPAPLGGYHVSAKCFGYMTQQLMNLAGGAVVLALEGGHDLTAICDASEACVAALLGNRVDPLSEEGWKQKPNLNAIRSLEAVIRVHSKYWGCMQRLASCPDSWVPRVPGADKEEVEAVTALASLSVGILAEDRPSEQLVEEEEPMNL
T1 sequence (Q13547 whole entry): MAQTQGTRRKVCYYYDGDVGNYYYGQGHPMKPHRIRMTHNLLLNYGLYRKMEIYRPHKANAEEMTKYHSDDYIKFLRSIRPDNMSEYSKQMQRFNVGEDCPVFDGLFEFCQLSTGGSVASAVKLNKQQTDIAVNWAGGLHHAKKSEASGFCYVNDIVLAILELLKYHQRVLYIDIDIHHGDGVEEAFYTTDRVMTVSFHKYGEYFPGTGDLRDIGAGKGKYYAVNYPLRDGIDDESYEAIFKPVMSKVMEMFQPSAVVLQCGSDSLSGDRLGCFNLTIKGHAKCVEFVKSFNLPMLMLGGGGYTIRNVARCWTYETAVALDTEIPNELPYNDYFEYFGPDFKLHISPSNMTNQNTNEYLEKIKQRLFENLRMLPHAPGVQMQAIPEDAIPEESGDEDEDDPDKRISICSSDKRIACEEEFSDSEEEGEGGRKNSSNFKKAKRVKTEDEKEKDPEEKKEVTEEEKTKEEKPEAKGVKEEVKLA

In general, IC50 refers to the concentration at which inhibition is half-maximal. In the case of `CCCCCOCCCCCNNC(=O)c1ccc(CNC(=O)c2ccccc2)cc1` [B6], the “myristoylation of SHMT2” value in the data set on myristoylation of SHMT2 is reported as “markedly increase”. At HDAC1, this compound had an IC50 of over 10 µM. Besides, the IC50 at HDAC3 was over 10 µM. Also, in data set [1] (10 mg kg^−1 p.o., chow diet), the “body weight, chow diet (C group vs B6 (10) group)” value is “no significant differences in body weight”. The “body weight of high fat diet mice” value in data set [1] (5 or 10 mg kg^−1 p.o., final 4 weeks, dose-dependent) is on record as “reduction in body weight”. In data set [1] (HFD mice), the “blood lipids NEFA, CHO, LDL-C” value is “reduce the elevated levels of blood lipids”; the “glucose tolerance test and insulin tolerance test” value is “improved glucose tolerance and insulin resistance”; the “phosphorylation of AMPKα at Thr172 in mouse liver” value was “restores the phosphorylation level”; the “serum ALT, AST and ALP (liver damage)” value is “alleviate liver damage”. In addition, the “serum HDL-C” value in data set [1] (HFD mice) was “no significant effect”. The “liver size and weight, body fat mass” value in data set [1] (HFD mice, 5 or 10 mg kg^−1 p.o.) is given as “effectively controlled”. In data set [1] (HFD mice, 5 or 10 mg kg^−1 p.o., dose-dependent), the “hepatic lipid content (TG, FFA, TC)” value is “reduction in hepatic lipid content”. For the same compound, in data set [1] (HFD mice, compared to H group), the “O2 consumption (VO2), CO2 production (VCO2) and heat” value is given as “increase”; the “liver protein and mRNA levels of CPT1A, PGC1α and PPARα” value is listed as “restored”. In data set [1] (HFD mice, metabolic cages), the “respiratory exchange ratio (RER)” value is on record as “slight increase in RER value”. Also, the “liver protein and mRNA expression of SREBP1c, FASN and SCD1” value in data set [1] (HFD mice, dose-dependent) is “downregulation”. Moreover, the “food intake of mice” value in data set [1] (mouse, in vivo) is recorded as “no effect on food intake”. The compound also registered an IC50 at HDAC7 of over 10 µM. The same compound displayed an IC50 on HDAC6 of over 10 µM.
